Experimental findings from paper PMC7697888, “Comprehensive Set of Tertiary Complex Structures and Palmitic Acid Binding Provide Molecular Insights into Ligand Design for RXR Isoforms” (International Journal of Molecular Sciences, 2020) are described below.

The structures appear in SMILES notation. Like-named read-outs stand apart in the source and are kept apart here.

Assay [1] has as its target T1, RXRγ (Homo sapiens, UniProt P48443).
T1 construct: pFA-CMV-hRXRγ-LBD (NR2B3, UniProt entry: P48443-1, aa 229–463); expressed in transfected cells; host or cells: HEK293T
T1 sequence (P48443 229-463): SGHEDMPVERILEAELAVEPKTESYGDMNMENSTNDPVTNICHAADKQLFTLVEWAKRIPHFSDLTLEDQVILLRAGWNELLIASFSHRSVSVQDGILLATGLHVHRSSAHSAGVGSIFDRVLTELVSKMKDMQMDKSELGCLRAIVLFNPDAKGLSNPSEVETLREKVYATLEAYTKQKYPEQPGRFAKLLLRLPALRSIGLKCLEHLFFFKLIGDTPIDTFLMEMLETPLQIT
The experiment in a line: Gal4 hybrid reporter gene assay RXRγ. Type of assay: cell-based. The note with it: HEK293T; at 100 µM concentrations and above. Here is the method:
(§1) The Gal4 hybrid reporter gene assays for RXRα, RXRβ and RXRγ were performed as described previously using the Gal4-fusion receptor plasmids pFA-CMV-hRXRα-LBD (NR2B1, UniProt entry: P19793, aa 225–462), pFA-CMV-hRXRβ-LBD (NR2B2, UniProt entry: P28702-1, aa 294–533) and pFA-CMV-hRXRγ-LBD (NR2B3, UniProt entry: P48443-1, aa 229–463), which code for the hinge region and LBD of the canonical RXR isoform. pFR-Luc (Stratagene, San Diego, CA, USA) as the reporter plasmid and pRL-SV40 (Promega, Madison, WI, USA) as the internal control were used. HEK293T cells were grown in DMEM high-glucose medium (supplemented with 10% fetal calf serum (FCS), sodium pyruvate (1 mM), penicillin (100 U/mL) and streptomycin (100 μg/mL)) at 37 °C and 5% CO2, and seeded in 96-well plates (3.0 × 10^4 cells/well) on the day before transfection. Right before transfection, medium was changed to Opti-MEM without supplements and cells were transiently transfected using the Lipofectamine LTX reagent (Invitrogen, Carlsbad, CA, USA) according to the manufacturer’s protocol with pFR-Luc (Stratagene), pRL-SV40 (Promega) and the respective pFA-CMV-hRXR-LBD clone. After 5 h of incubation, medium was changed to Opti-MEM (supplemented with penicillin (100 U/mL) and streptomycin (100 μg/mL)) additionally containing 0.1% DMSO and the respective test compounds or 0.1% DMSO alone as the untreated control. After overnight incubation (12–14 h), cells were assayed for luciferase activity using the Dual-Glo luciferase assay system (Promega) according to the manufacturer’s protocol on a Tecan Spark M10 luminometer (Tecan Deutschland GmbH, Crailsheim, Germany). Each sample was tested in at least three biologically independent repeats in duplicates. Data were normalized for transfection efficiency and cell growth by division of firefly luciferase data by Renilla luciferase data and multiplying by 1000 to obtain relative light units (RLUs). Fold activation denotes the mean RLU of test compounds at a respective concentration divided by the mean RLU of untreated control. […]

For assay [2], the target named is T2, RXRα LBD (Homo sapiens, UniProt P19793).
T2 construct: peptide to the RXRα LBD (aa 225–462) was studied
T2 sequence (P19793 225-462): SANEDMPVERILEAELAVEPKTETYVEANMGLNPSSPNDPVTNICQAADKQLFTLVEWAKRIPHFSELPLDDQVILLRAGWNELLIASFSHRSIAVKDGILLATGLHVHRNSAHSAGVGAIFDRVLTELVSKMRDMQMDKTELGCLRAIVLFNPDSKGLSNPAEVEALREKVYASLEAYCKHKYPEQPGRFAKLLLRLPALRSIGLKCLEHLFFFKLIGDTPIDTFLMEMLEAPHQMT
The assay can be described thus: HTRF-based SRC-1 co-activator recruitment assay. Type of assay: biochemical. As to conditions: for EC50: HTRF; for competition with bexarotene in SRC-1 recruitment: titrated in the presence of 0.3 µM bexarotene. An excerpt: To examine whether PA can act as a modulator that activates RXRs in solution, we next performed homogenous time-resolved fluorescence resonance energy transfer (HTRF)-based co-regulator recruitment assays using a peptide derived from steroid receptor co-activator 1 (SRC-1) as established previously. In addition to PA, we also tested the RXR modulator potentials of myristic acid (MA; C14:0; C14H28O2; […]) and stearic acid (SA; C18:0; C18H36O2; […]).
Terbium cryptate as streptavidin conjugate (Cisbio Bioassays, Codolet, France) was used as the fluorescence resonance energy transfer (FRET) donor and stably coupled via an N-terminal biotin to the SRC-1-derived peptide (biotin-[…]) (Eurogentec Deutschland GmbH, Cologne, Germany), which contains the co-activator consensus motif, LxxLL. Recombinant RXRα LBD fused to N-terminal superfolder green fluorescent protein (sGFP) served as the FRET acceptor. Coactivator recruitment by the RXRα LBD brings FRET donor and acceptor into close proximity, resulting in a gain in the FRET signal as indicator for binding. […] Fluorescence intensities (FI) at 520 nm (acceptor) and 620 nm (donor reference) after excitation at 340 nm were recorded on a Tecan Spark luminometer equipped with enhanced fluorescence module (Tecan) after 2 h of incubation at room temperature. To obtain dimensionless HTRF, FI520 nm was divided by FI620 nm and multiplied with 10,000. The recruitment of the SRC-1-derived peptide to the RXRα LBD was validated with increasing concentrations of SR11237.

Assay [3] has as its target T3, RXRβ (Homo sapiens, UniProt P28702).
T3 construct: pFA-CMV-hRXRβ-LBD (NR2B2, UniProt entry: P28702-1, aa 294–533); expressed in transfected cells; host or cells: HEK293T
T3 sequence (P28702 294-533): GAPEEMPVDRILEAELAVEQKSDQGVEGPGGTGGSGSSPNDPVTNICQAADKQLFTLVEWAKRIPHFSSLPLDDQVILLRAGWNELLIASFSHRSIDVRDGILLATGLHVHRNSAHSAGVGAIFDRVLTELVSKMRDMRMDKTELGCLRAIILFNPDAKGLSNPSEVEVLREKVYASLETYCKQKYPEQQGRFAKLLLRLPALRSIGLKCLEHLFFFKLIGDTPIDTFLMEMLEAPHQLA
The experiment in a line: Gal4 hybrid reporter gene assay RXRβ. It counts as cell-based. As to conditions: HEK293T; at 100 µM concentrations and above. Here is the method: as §1

Where [4] appears, read: cell-free, compound alone, read-out: EC50 SRC-1 recruitment to RXRα.
Where [5] appears, read: in the presence of 0.3 µM bexarotene, read-out: EC50 SRC-1 recruitment to RXRα in the presence of 0.3 µM bexarotene.

On to `CCCCCCCCCCCCCCCCCC(=O)O` [SA, stearic acid], for which the “RXRγ activation in Gal4 hybrid reporter gene assay” value (“RXRγ activation” below) in assay [1] is “activated”. In addition, the EC50 is 19 µM in assay [2] (setting [4]) and 14 µM in assay [2] (setting [5]). The “competition with bexarotene in SRC-1 recruitment” value (“competition with bexarotene” for short) in assay [2] was “no competition”. In assay [3], the “RXRβ activation in Gal4 hybrid reporter gene assay” value (from here on “RXRβ activation”) is “activated”.

Consider `CCCCCCCCCCCCCC(=O)O` [MA, myristic acid], for which the “RXRγ activation” value in assay [1] was “activated”. Moreover, the EC50 came to 2.9 µM in assay [2] (EC50 SRC-1 recruitment to RXRα in the presence of 0.3 µM bexarotene, in the presence of 0.3 µM bexarotene) and 3.2 µM in assay [2] (setting [4]). Moreover, the “competition with bexarotene” value in assay [2] is reported as “no competition”. Also, the “RXRβ activation” value in assay [3] is “activated”.

As to `CCCCCCCCCCCCCCCC(=O)O` [PA, palmitic acid], the “RXRγ activation” value in assay [1] was “activated”. The EC50 in assay [2] (setting [4]) is 6.6 µM; in assay [2] (setting [5]), 3.1 µM. Besides, the “competition with bexarotene” value in assay [2] is “no competition”. The “RXRβ activation” value in assay [3] is recorded as “activated”.
